Measured values as given in US9833497B2, “Human originated EGF domain proteins and use of the same” (CHENGDU SOURCEBIO LIMITED-LIABILITY COMPANY, priority 2013, dated 2017).

How the values were obtained:
Type in all cases: cell-based
[1] = test system: Serratia marcescens; test: MIC against Gram-negative bacteria: Serratia marcescens; settings: 5×10^5 CFU/mL; for MIC against S. marcescens: Serratia marcescens
How it was run: (§1)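 First, colonies from LB agar were grown in LB at 37° C, 185 rpm, to McFarland turbidity 0.5, then centrifuged and resuspended in fresh LB. Next, wells received 5×10^5 CFU/mL bacteria plus two-fold serially diluted EGF domain protein (triplicate). Finally, plates were shaken at 37° C and the no-growth concentration taken as MIC.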

[2] = test system: Citrobacter diversus; test: MIC against Gram-negative bacteria: Citrobacter diversus; settings: 5×10^5 CFU/mL; for MIC against C. diversus: Citrobacter diversus
How it was run: as §1

[3] = test system: Moraxella catarrhalis; test: MIC against Gram-negative bacteria: Moraxella catarrhalis; settings: 5×10^5 CFU/mL; for MIC against M. catarrhalis: Moraxella catarrhalis
How it was run: as §1

[4] = test system: E. coli BL21; test: MIC against Gram-negative bacteria: E. coli BL21; settings: 5×10^5 CFU/mL
How it was run: as §1

[5] = test system: E. coli DH5α; test: Antibacterial activity: MIC and growth curve against E. coli DH5α in 96-well plate; settings: minimal inhibitory concentration against E. coli DH5α; 96-well plate, 5×10^5 CFU/mL, 37° C., judged after 8 h
How it was run: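 Log-phase bacteria (OD600 ~0.5) resuspended in LB at 5×10^5 CFU/mL, exposed to recombinant protein at 50, 25, 12.5 μg/mL final in triplicate, 37 °C shaking at 175 rpm. OD600 read every 30 min; MIC is lowest concentration showing no growth.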

[6] = test system: Aeromonas hydrophila; test: MIC against Gram-negative bacteria: Aeromonas hydrophila; settings: 5×10^5 CFU/mL; for MIC against A. hydrophila: Aeromonas hydrophila
How it was run: as §1

[7] = test system: Proteus mirabilis; test: MIC against Gram-negative bacteria: Proteus mirabilis; settings: 5×10^5 CFU/mL; for MIC against P. mirabilis: Proteus mirabilis
How it was run: as §1

[8] = test system: Proteus vulgaris; test: MIC against Gram-negative bacteria: Proteus vulgaris; settings: 5×10^5 CFU/mL; for MIC against P. vulgaris: Proteus vulgaris
How it was run: as §1

[9] = test system: Klebsiella pneumonia; test: MIC against Gram-negative bacteria: Klebsiella pneumonia; settings: 5×10^5 CFU/mL; for MIC against K. pneumonia: Klebsiella pneumonia
How it was run: as §1

[10] = test system: Pseudomonas aeruginosa; test: MIC against Gram-negative bacteria: Pseudomonas aeruginosa; settings: 5×10^5 CFU/mL; for MIC against P. aeruginosa: Pseudomonas aeruginosa
How it was run: as §1

[11] = test system: Enterobacter cloacae; test: MIC against Gram-negative bacteria: Enterobacter cloacae; settings: 5×10^5 CFU/mL; for MIC against E. cloacae: Enterobacter cloacae
How it was run: as §1

[12] = E. coli BL21, 96-well plate, 37° C., 10 h
[13] = E. coli BL21, 10 h cultivation at 37° C.
[14] = 10 h cultivation at 37° C., two-fold serial dilution

Row | Substance | MIC [5] | MIC against S. marcescens ([1]; 96-well plate, 37° C., 10 h) | MIC against C. diversus ([2]; 96-well plate, 37° C., 10 h) | MIC against M. catarrhalis ([3]; 96-well plate, 37° C., 10 h) | MIC against E. coli BL21 [4, 12] | MIC against A. hydrophila ([6]; 96-well plate, 37° C., 10 h) | MIC against P. mirabilis ([7]; 96-well plate, 37° C., 10 h) | MIC against P. vulgaris ([8]; 96-well plate, 37° C., 10 h) | MIC against K. pneumonia ([9]; 96-well plate, 37° C., 10 h) | MIC against P. aeruginosa ([10]; 96-well plate, 37° C., 10 h) | MIC against E. cloacae ([11]; 96-well plate, 37° C., 10 h) | MIC S. marcescens [1, 14] | MIC C. diversus [2, 14] | MIC M. catarrhalis [3, 14] | MIC E. coli BL21 [4, 14] | MIC A. hydrophila [6, 14] | MIC P. mirabilis [7, 14] | MIC P. vulgaris [8, 14] | MIC K. pneumonia [9, 14] | MIC P. aeruginosa [10, 14] | further results
1 | PRT684 (APVLCPLICHNGGVCVKPDRCLCPPDFAGKFCQ; listed as Homo sapiens) | 12.5 µg/mL |  |  |  |  |  |  |  |  |  |  |  |  |  |  |  |  |  |  |  | MIC S. marcescens ([1]; 96-well plate, 37° C., 10 h): 12.5 µg/mL; MIC C. diversus ([2]; 96-well plate, 37° C., 10 h): 25 µg/mL; MIC M. catarrhalis ([3]; 96-well plate, 37° C., 10 h): 12.5 µg/mL; MIC E. coli BL21 ([4]; 96-well plate, 37° C., 10 h): 25 µg/mL; MIC A. hydrophila ([6]; 96-well plate, 37° C., 10 h): 50 µg/mL; MIC P. mirabilis ([7]; 96-well plate, 37° C., 10 h): 25 µg/mL; MIC P. vulgaris ([8]; 96-well plate, 37° C., 10 h): 50 µg/mL; MIC K. pneumonia ([9]; 96-well plate, 37° C., 10 h): 25 µg/mL; MIC P. aeruginosa ([10]; 96-well plate, 37° C., 10 h): 50 µg/mL; MIC E. cloacae ([11]; 96-well plate, 37° C., 10 h): 12.5 µg/mL
2 | PRT1202 (GYDFCSERHNCMENSICRNLNDRAVCSCRDGFRALREDNAYCE; listed as Homo sapiens) | 50 µg/mL | 50 µg/mL | 12.5 µg/mL | 50 µg/mL | 12.5 µg/mL | 50 µg/mL | 12.5 µg/mL | 25 µg/mL | 50 µg/mL | 25 µg/mL | 12.5 µg/mL |  |  |  |  |  |  |  |  |  | 
3 | PRT1424 (CQMFCNQTACPADCDPNTQASCECPEGYILDDGFICT; listed as Homo sapiens) | 50 µg/mL |  |  |  |  |  |  |  |  |  |  |  |  |  |  |  |  |  |  |  | MIC against S. marcescens ([1]; 10 h cultivation at 37° C.): 25 µg/mL; MIC against C. diversus ([2]; 10 h cultivation at 37° C.): 25 µg/mL; MIC against M. catarrhalis ([3]; 10 h cultivation at 37° C.): 50 µg/mL; MIC against E. coli BL21 [4, 13]: 12.5 µg/mL; MIC against A. hydrophila ([6]; 10 h cultivation at 37° C.): 12.5 µg/mL; MIC against P. mirabilis ([7]; 10 h cultivation at 37° C.): 25 µg/mL; MIC against P. vulgaris ([8]; 10 h cultivation at 37° C.): 12.5 µg/mL; MIC against K. pneumonia ([9]; 10 h cultivation at 37° C.): 12.5 µg/mL; MIC against P. aeruginosa ([10]; 10 h cultivation at 37° C.): 50 µg/mL; MIC against E. cloacae ([11]; 10 h cultivation at 37° C.): 50 µg/mL
4 | PRT1270 (DVDECSLDRTCDHSCINHPGTFACACNRGYTLYGFTHCG; listed as Homo sapiens) | 50 µg/mL | 12.5 µg/mL | 12.5 µg/mL | 25 µg/mL | 12.5 µg/mL | 25 µg/mL | 50 µg/mL | 25 µg/mL | 12.5 µg/mL | 50 µg/mL | 50 µg/mL |  |  |  |  |  |  |  |  |  | 
5 | PRT1437 (DVNECADGAHPPCHASARCRNTKGGFQCLCADPYELGDDGRTCV; listed as Homo sapiens) | 12.5 µg/mL |  |  |  |  |  |  |  |  |  |  |  |  |  |  |  |  |  |  |  | MIC against S. marcescens ([1]; 10 h cultivation at 37° C.): 50 µg/mL; MIC against C. diversus ([2]; 10 h cultivation at 37° C.): 12.5 µg/mL; MIC against M. catarrhalis ([3]; 10 h cultivation at 37° C.): 12.5 µg/mL; MIC against E. coli BL21 [4, 13]: 25 µg/mL; MIC against A. hydrophila ([6]; 10 h cultivation at 37° C.): 12.5 µg/mL; MIC against P. mirabilis ([7]; 10 h cultivation at 37° C.): 25 µg/mL; MIC against P. vulgaris ([8]; 10 h cultivation at 37° C.): 12.5 µg/mL; MIC against K. pneumonia ([9]; 10 h cultivation at 37° C.): 12.5 µg/mL; MIC against P. aeruginosa ([10]; 10 h cultivation at 37° C.): 12.5 µg/mL; MIC against E. cloacae ([11]; 10 h cultivation at 37° C.): 12.5 µg/mL
6 | PRT1287 (EPCRKLYCLHGICQPNATPGPMCHCEAGWVGLHCD; listed as Homo sapiens) | 50 µg/mL | 50 µg/mL | 12.5 µg/mL | 50 µg/mL | 25 µg/mL | 50 µg/mL | 12.5 µg/mL | 50 µg/mL | 50 µg/mL | 12.5 µg/mL | 12.5 µg/mL |  |  |  |  |  |  |  |  |  | 
7 | PRT1136 (KQQFCQESLSSEFCSGHGKCLSEAWSKTYSCHCQPPFSGKYCQ; listed as Homo sapiens) | 50 µg/mL |  |  |  |  |  |  |  |  |  |  | 12.5 µg/mL | 50 µg/mL | 12.5 µg/mL | 12.5 µg/mL | 12.5 µg/mL | 25 µg/mL | 50 µg/mL | 12.5 µg/mL | 50 µg/mL | MIC E. cloacae [11, 14]: 50 µg/mL
8 | PRT168 (CLPGCDEQHGFCDKPGECKCRVGWQGRYC; listed as Homo sapiens) | 25 µg/mL |  |  |  |  |  |  |  |  |  |  |  |  |  |  |  |  |  |  |  | MIC (μg/mL) S. marcescens ([1]; S. marcescens, 10 h cultivation at 37° C.): 12.5 µg/mL; MIC (μg/mL) C. diversus ([2]; C. diversus, 10 h cultivation at 37° C.): 12.5 µg/mL; MIC (μg/mL) M. catarrhalis ([3]; M. catarrhalis, 10 h cultivation at 37° C.): 50 µg/mL; MIC (μg/mL) E. coli BL21 [4, 13]: 25 µg/mL; MIC (μg/mL) A. hydrophila ([6]; A. hydrophila, 10 h cultivation at 37° C.): 50 µg/mL; MIC (μg/mL) P. mirabilis ([7]; P. mirabilis, 10 h cultivation at 37° C.): 12.5 µg/mL; MIC (μg/mL) P. vulgaris ([8]; P. vulgaris, 10 h cultivation at 37° C.): 50 µg/mL; MIC (μg/mL) K. pneumonia ([9]; K. pneumonia, 10 h cultivation at 37° C.): 25 µg/mL; MIC (μg/mL) P. aeruginosa ([10]; P. aeruginosa, 10 h cultivation at 37° C.): 12.5 µg/mL; MIC (μg/mL) E. cloacae ([11]; E. cloacae, 10 h cultivation at 37° C.): 12.5 µg/mL
9 | PRT1155 (QSVSCLNNLCLHQSLCIPDQSFSYSCLCTLGWVGRYCE; listed as Homo sapiens) | 25 µg/mL |  |  |  |  |  |  |  |  |  |  | 12.5 µg/mL | 12.5 µg/mL | 25 µg/mL | 12.5 µg/mL | 25 µg/mL | 50 µg/mL | 25 µg/mL | 12.5 µg/mL | 25 µg/mL | MIC E. cloacae [11, 14]: 12.5 µg/mL
10 | PRT1154 (DGTACGYNTCRNGGECTVNGTTFSCRCLPDWAGNTCN; listed as Homo sapiens) | 50 µg/mL |  |  |  |  |  |  |  |  |  |  | 12.5 µg/mL | 12.5 µg/mL | 12.5 µg/mL | 12.5 µg/mL | 100 µg/mL | 12.5 µg/mL | 12.5 µg/mL | 12.5 µg/mL | 50 µg/mL | MIC E. cloacae [11, 14]: 25 µg/mL
